Source: patent US8815935B2, “Inhibitors of protein prenyltransferases” (The Regents of the University of California, priority 2008, dated 2014)
Like-named read-outs stand apart in the source and are kept apart here.

Experiments:
FTase = target: T1, FTase (Rattus norvegicus, UniProt Q02293+Q04631); assay: In vitro FTase assay (K-Ras4B substrate, [3H]FPP); format: biochemical; conditions: for inhibition of FTase: at concentrations at which GGTase-I was inhibited by more than 90%
T1 construct: purchased JENA BIOSCIENCE
Text: To further characterize the pilot library, inhibitors of protein farnesyltransferase were identified. This was accomplished by using K-Ras4B as a substrate protein, tritiated farnesylpyrophosphate ([^3H]FPP) and protein farnesyltransferase. See Finegold, A. A., Johnson, D. I., Farnsworth, C. C., Gelb, M. H., Judd, S. R., Glomset, J. A. and Tamanoi, F. (1991) Protein geranylgeranyltransferase of Saccharomyces cerevisiae is specific for Cys-Xaa-Xaa-Leu motif and requires the CDC43 gene product but not the DPR1 gene product. Proc. Natl. Acad. Sci. USA 88, 4448-4452. […] On the other hand, the structure of the compounds P1-F11, P2-B7 and P2-E9 resemble those of GGTIs. The FTI P1-F11 resembles the GGTI P1-F10, while the FTI P2-B7 resembles the GGTI P2-C10. The FTI P2-E9 is similar to the GGTI P2-G3. Similarity of some GGTI and FTI compounds may point to common structural features between the two closely related enzymes. As described before, FTase and GGTase I have similar three-dimensional structures and a shared alpha subunit. On the other hand, FTase specific inhibitors may recognize a region(s) that is different between the two enzymes.
Examples 2-8 illustrate assays of bioactivity. These methods are applicable to the compounds of the present invention having the particular linkers and scaffolds described herein, to determine their activity. […] Varying concentrations of the two compounds were added to each enzyme reaction. The FTase (protein farnesyltransferase) assay was carried out using K-Ras4B as a substrate protein, FTase (JENA Bioscience, San Diego, Calif.) and [3H]farnesyl pyrophosphate. Incubation was for 30 min at 37° C.
(§1) GGTase-I and FTase activities were determined by following the incorporation of radiolabeled isoprenoid [^3H]-geranylgeranyl or [^3H]-farnesyl into substrate proteins. FTase or GGTase-I (50 nM) were used to initiate reactions containing 0.4 μM of [^3H]-FPP or 0.5 μM of [^3H]-GGPP and 2 μM of MBP-tagged substrates (K-Ras4B for FTase; RhoA for GGTase-I) in 20 μl of buffer {50 mM Tris-HCl (pH 7.5), 10 mM MgCl2, […] and 5 mM DTT}. Inhibitors were added at the indicated concentrations. The final DMSO concentration was 2.5% for all samples.
(§2) Reactions were carried out for 10 min at 30° C. The reaction mixture was spotted onto a filter paper, treated with 10% trichloroacetic acid (TCA) followed by ethanol and acetone washing. The filter was counted using a scintillation counter. Kinetic assays in which the GGPP concentration was varied employed fixed concentrations of GGTase-I and RhoA, and reactions were carried out for 5 min. Similarly, fixed concentrations of GGTase-I and GGPP were used when the amount of RhoA was varied.

GGTase-I = target: T2, GGTase-I (Rattus norvegicus, UniProt P53610+Q04631); assay: In vitro GGTase-I enzyme assay (IC50, kinetics); format: biochemical
T2 construct: purchased JENA BIOSCIENCE
Description: The GGTase-I assay was carried out using RhoA as a substrate protein, GGTase-I (JENA Bioscience) and [3H]geranylgeranyl pyrophosphate. Incubation was for 30 min at 37° C. GGTase-II (or RabGGTase) assay was carried out using YPTI as a substrate protein, GGTase-II (Calbiochem, San Diego, Calif.) plus REP1 (Calbiochem) and [3H]geranylgeranyl pyrophosphate. Incubation was for 30 min at 37° C. FIGS. 20D-20F show the three dimensional structure of GGTase I (D), FTsse (E) and GGTase II (F) which can be obtained from X-ray diffraction studies of protein crystals.
as §1, §2

BT474 = BT474 cell growth inhibition; format: cell-based, human; conditions: no unit printed there
Description: (§3) In FIG. 9-24 in vitro IC50 values for the GGTase I activity are reported. In Tables 7-15 in cell GI50 values for the growth inhibition of a variety of cancer cell lines (e.g., Jurkat, K562, MDA-MB-231, BT474, MCF7, MiaPaCa2, Aspc-1, Panc-1, Capan-2, CFpac-1, and MCF10a) are reported.
(§4) Cell viability was determined by Cell Counting Kit-8 (CCK-8, Dojindo, Kumamoto, Japan) as described previously (31). Cell viability was calculated relative to the DMSO control. Cell cycle profile was analyzed by flow cytometry as described previously (32).

MiaPaCa2 = MiaPaCa2 cell growth inhibition; format: cell-based, human; conditions: no unit printed there
Description: as §3, §4

K562 cells = assay: K562 cell growth inhibition; format: cell-based, human; conditions: no unit printed there
Description: K562 cells are a cell line of human erythroleukemia cells. The K562 cells were treated with P3-E5, P5-H6 or GGTI-298 (a known GGTI compound illustrated in FIG. 27) for 72 hours and then cell number was counted using cell counting kit-8 (Dojindo, Gaithersburg, Md.). Cell viability relative to the DMSO control and the known GGTI compound is plotted in FIG. 23.
as §4

CFpac-1 = CFpac-1 cell growth inhibition; format: cell-based, human; conditions: no unit printed there
Description: as §3, §4

Aspc-1 = Aspc-1 cell growth inhibition; format: cell-based, human; conditions: no unit printed there
Description: as §3, §4

Capan-2 = Capan-2 cell growth inhibition; format: cell-based, human; conditions: no unit printed there
Description: as §3, §4

Panc-1 = Panc-1 cell growth inhibition; format: cell-based, human; conditions: no unit printed there
Description: as §3
(§5) Panc-1 cells (Pancreatic cancer cell line) and Jurkat cells (T-cell leukemia) were treated with 12.5 μM of P5-H6 or 12.5 μM of mP5-H6a for 72 hours. The cell number was counted as described in Example 5.
as §4

MDA-MB-231 = MDA-MB-231 cell growth inhibition; format: cell-based, human; conditions: no unit printed there
Description: as §3, §4

Jurkat cells = assay: Jurkat cell growth inhibition; format: cell-based, human
Description: In Table 4 in cell GI50 values for the growth inhibition of Jurkat cells are reported. The GI50 value is the concentration of a test compound needed to produce 50% growth inhibition in the cell type listed. In Table 4 the isolated yield of each synthetic step for the synthesis of corresponding compounds are also reported.
as §5, §4

MCF10a = MCF10a cell growth inhibition; format: cell-based; conditions: Homo sapiens, MCF-10A, Tables 8-15; no unit printed there
Text: as §3

MCF7 = MCF7 cell growth inhibition; format: cell-based, human; conditions: Homo sapiens, MCF7, Tables 8-15; no unit printed there
Description: as §3, §4

[1] = test system: geranylgeranylated Rheb (Rheb-CSVL) in HEK 293 cells; assay: Rheb-CSVL mobility shift in HEK 293 cells; format: cell-based, human; conditions: 48 hours
Text: Finally, we investigated in vivo effects of compounds 22 (also known as UC-22) and 23 (also known as UC-23). Human embryonic kidney (HEK) 293 cells were transfected with the Rheb-CSVL construct that expresses the geranylgeranylated form of the Rheb protein. Inhibition of the geranylgeranylation of this protein can be detected from a shift in its mobility on SDS polyacrylamide gel; the unprocessed form appears as a slowly migrating band.
Human embryonic kidney (HEK) 293 cells expressing Myc-HA tagged-Rheb-CVSL (upper) or Myc-HA tagged-Rheb-WT (lower) were treated with P3-E5 for 48 hours and then lysed. The cell lysates were run on a SDS polyacrylamide gel and immunoblotted using anti-Myc or anti-Actin antibody. The descriptors P and U indicate processed and unprocessed Rheb, respectively.
Human embryonic kidney (HEK) 293 cells expressing Myc-HA tagged-Rheb-CVSL (upper) or Myc-HA tagged-Rheb-WT (lower) were treated with mP5-H6a (also referred to as mP5-H6), or GGTI-298 for 48 hours and then lysed. Lysates were run on a SDS polyacrylamide gel and immunoblotted with anti-Myc or anti-Actin antibody.

[2] = Homo sapiens, BT-474, Tables 8-15
[3] = Homo sapiens, MIA PaCa-2, Tables 8-15
[4] = Homo sapiens, K562, Tables 8-15
[5] = Homo sapiens, CFPAC-1, Tables 8-15
[6] = Homo sapiens, ASPC1, Tables 8-15
[7] = Homo sapiens, Capan-2, Tables 8-15
[8] = Homo sapiens, PANC-1, Tables 8-15
[9] = Tables 3, 5, 7, read-out: In vitro (enzyme assay) IC50, GGTase I
[10] = Tables 8-15, no unit printed there (Table 7 head: μM unless otherwise specified), read-out: In vitro (GGTase I IC50)
[11] = Homo sapiens, Jurkat, Tables 4, 6, 7, read-out: Jurkat cell GI50
[12] = Homo sapiens, Jurkat, Tables 8-15, no unit printed there, read-out: Jurkat GI50
[13] = Tables 4, 6, 7, read-out: Jurkat cell GI50
[14] = Homo sapiens, MDA-MB-231, Tables 8-15

GI50 (BT474; [2]) [µM]	GI50 (MiaPaCa2; [3]) [µM]	GI50 (K562 cells; [4]) [µM]	GI50 (Aspc-1; [6]) [µM]	GI50 (Panc-1; [8]) [µM]	IC50 (GGTase-I; [9]) [µM]	IC50 (GGTase-I; [10]) [µM]	GI50 (Jurkat cells; [12]) [µM]	Structure (SMILES)	GI50 (CFpac-1; [5]) [µM]	GI50 (Capan-2; [7]) [µM]	other results
								Cn1cncc1CN1C[C@@H](Cc2ccccc2)N(S(=O)(=O)c2cccs2)Cc2cc(C#N)ccc21 [BMS225975, reference compound]			inhibition of FTase activity (FIG. 16) (FTase; P3-D9, P3-E5: concentration increased to 100 (unit not given)): inhibits FTase; inhibition of GGTase I (FIG. 16 controls) (GGTase-I): does not inhibit GGTase I
9.08	6.15	5.21	12.2	9.05	16	6	4.74	CC(C)(C)[C@@H]1C=C(C(=O)N[C@@H](Cc2ccccc2)C(N)=O)[C@H](c2ccc(Br)cc2)N1S(=O)(=O)c1ccccc1Cl [P61-B08]	6.16	8.32	GI50 (MDA-MB-231; Tables 8-15, listed as P61B8): 4.43 µM; GI50 (Jurkat cells; [11]): 4.74 µM
					> 10	> 10		CC(C)(C)[C@@H]1C=C(C(=O)N[C@@H](Cc2ccccc2)C(N)=O)[C@H](c2ccc(Br)cc2)N1S(=O)(=O)c1ccccc1Cl [P61-B09]			GI50 (BT474; Tables 8-15, listed as P61B9): 9.9 µM; GI50 (MiaPaCa2; Tables 8-15, listed as P61B9): 12.1 µM; GI50 (K562 cells; Tables 8-15, listed as P61B9): 9.18 µM; GI50 (CFpac-1; Tables 8-15, listed as P61B9): 6.3 µM; GI50 (Aspc-1; Tables 8-15, listed as P61B9): 16.8 µM; GI50 (Capan-2; Tables 8-15, listed as P61B9): 10.7 µM; GI50 (Panc-1; Tables 8-15, listed as P61B9): 12 µM; GI50 (MDA-MB-231; Tables 8-15, listed as P61B9): 11.3 µM; GI50 (Jurkat cells; [13]): 8.75 µM; GI50 (Jurkat cells; Tables 8-15, no unit printed there, listed as P61B9, read-out: Jurkat GI50): 8.75 µM
10.8	8.06	6.74	12.9	11.7	5.4	5.4	5.62	Cc1ccccc1S(=O)(=O)N1[C@@H](c2ccc(Cl)c(Cl)c2)C(C(=O)N[C@@H](Cc2ccccc2)C(N)=O)=C[C@H]1C(C)(C)C [P61-B10]		8.45	GI50 (CFpac-1; Tables 8-15): 6.09 µM; GI50 (MDA-MB-231; Tables 8-15): 12.6 µM; GI50 (Jurkat cells; [11]): 5.62 µM
					7.6	7.6		Cc1ccccc1S(=O)(=O)N1[C@@H](c2ccc(Cl)c(Cl)c2)C(C(=O)N[C@@H](Cc2ccccc2)C(N)=O)=C[C@H]1C(C)(C)C [P61-B11]			GI50 (BT474; Tables 8-15): 10.6 µM; GI50 (MiaPaCa2; Tables 8-15): 7.49 µM; GI50 (K562 cells; Tables 8-15): 6.9 µM; GI50 (CFpac-1; Tables 8-15): 2.03 µM; GI50 (Aspc-1; Tables 8-15): 11.5 µM; GI50 (Capan-2; Tables 8-15): 11.3 µM; GI50 (Panc-1; Tables 8-15): 7.52 µM; GI50 (MDA-MB-231; Tables 8-15): 5.54 µM; GI50 (MCF10a): 9.38 µM; GI50 (MCF7): 4.74 µM; GI50 (Jurkat cells; [13]): 6.9 µM; GI50 (Jurkat cells; Tables 8-15, no unit printed there, read-out: Jurkat GI50): 6.9 µM
10.8	7.17	6.3	11.4	8.85	> 10	> 10	9.79	Cc1ccccc1S(=O)(=O)N1[C@@H](c2ccc(Cl)cc2)C(C(=O)N[C@@H](Cc2ccccc2)C(N)=O)=C[C@H]1C(C)CC(C)(C)C (stereo partly drawn) [P61-C03]	1.25	10.5	GI50 (MCF10a): 9.16 µM; GI50 (MCF7): 3.1 µM; GI50 (Jurkat cells; [11]): 9.76 µM
8.64	7.48	6.28	12.4	13			4.89	Cc1ccccc1S(=O)(=O)N1[C@@H](c2ccc(Cl)cc2)C(C(=O)N[C@@H](Cc2ccccc2)C(N)=O)=C[C@H]1C(C)(C)C [P61A6]	6.38	11.5	GI50 (MDA-MB-231; [14]): 8.25 µM; GI50 (MCF10a): 13.2 µM; GI50 (MCF7): 3.72 µM
								Cc1ccccc1S(=O)(=O)N1[C@@H](c2ccc(Cl)cc2)C(C(=O)O)=C[C@H]1C(C)(C)C [compound 22]			inhibition of geranylgeranylation of Rheb-CSVL (slowly migrating unprocessed band) [1]: inhibit geranylgeranylation within the cell; inhibition of FTase (FTase): did not inhibit FTase
								Cc1ccccc1S(=O)(=O)N1C(c2ccc(Cl)cc2)CC=C(C(=O)O)[C@@H]1c1cccc(Cl)c1 (stereo partly drawn) [compound 23]			inhibition of geranylgeranylation of Rheb-CSVL (slowly migrating unprocessed band) [1]: inhibit geranylgeranylation within the cell; inhibition of FTase (FTase): did not inhibit FTase
5.28		6.7				8.1	6.58	Cc1ccccc1S(=O)(=O)N1[C@@H](c2ccc(Cl)cc2)C(C(=O)N[C@@H](CC(C)C)C(N)=O)=C[C@H]1C(C)(C)C [drawing 156]			GI50 (MDA-MB-231; [14]): 6.68 µM
	7.24		11.4	6.45				Cc1ccccc1S(=O)(=O)N1[C@@H](c2ccc(Cl)cc2)C(C(=O)N[C@@H](CC(C)C)C(N)=O)=C[C@H]1C(C)(C)C [drawing 164]	< 1.25	6.69	
